Measured values as given in article PMC11203919, “Heat Stress and Microbial Stress Induced Defensive Phenol Accumulation in Medicinal Plant Sparganium stoloniferum” (International Journal of Molecular Sciences, 2024).

Target: T1, SsC4H (Sparganium stoloniferum, UniProt A0AAU8GF87)
T1 construct: gene C4H; pYeDP60 in yeast WAT11 culture, not purified
Experiment: substrate feeding of yeast culture, LC-MS/MS of p-coumaric acid
Assay type: cell-based
Conditions: 0.5 mM substrate, 16 °C, 12 h; yeast WAT11

T1 sequence (A0AAU8GF87 entry or part of it): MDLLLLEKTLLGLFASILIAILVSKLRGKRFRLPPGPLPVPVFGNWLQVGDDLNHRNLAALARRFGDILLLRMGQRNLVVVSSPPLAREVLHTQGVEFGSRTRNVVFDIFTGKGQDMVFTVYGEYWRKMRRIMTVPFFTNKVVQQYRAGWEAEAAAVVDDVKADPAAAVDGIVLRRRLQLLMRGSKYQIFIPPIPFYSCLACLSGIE

O=C(O)/C=C/c1ccccc1 [trans-cinnamic acid]
substrate feeding of yeast culture, LC-MS/MS of p-coumaric acid: Upon adding trans-cinnamic acid to the SsC4H-pYeDP60-WAT11 culture, hydroxylation occurred to produce p-coumaric acid
